Test system: mechanically ventilated, adult patients admitted to the intensive care unit (ICU)
Assay: Example 2: prospective, randomized, controlled study, morbidity analysis
Format: in vivo, human
Conditions: for Patients with critical illness polyneuropathy - total no.: EMG-screened patients; for Number of transfusions per patient (median): admission day not taken into account
Source text: All mechanically ventilated, adult patients admitted to the intensive care unit (ICU) were eligible for inclusion.
At baseline, demographic, diagnostic and therapeutic information as well as information necessary to determine severity of illness and utilization of ICU resources were obtained from each patient (Table 1). These included APACHE-II (Acute Physiology and Chronic Health Evaluation) score with higher values indicating more severe illness (see Knaus) and simplified Therapeutic Intervention Scoring System (TISS-28) with higher values indicating a higher number of therapeutic interventions (see Reis Miranda & Keene). APACHE II and TISS scores were calculated daily from ICU admission to discharge or death.
A blood sample was taken upon ICU admission and daily at 06:00 h until discharge from ICU or death. On-admission and daily morning, whole blood glucose level as well as daily maximal and minimal glycemia were analysed. Analyses on the 06:00 h sample also included clinical chemistry, hematology and markers of inflammation.
Blood cultures were taken whenever continously monitored central body temperature acutely rose above 38.5° C. Results from all blood cultures were interpreted by the same blinded investigator. An episode of bacteremia, fungemia or mycobacteremia was defined by the first positive blood culture in a series. To identify a blood stream infection with coagulase-negative staphylocci, identical strains (compared by antibiogram) of microorganisms in two or more positive blood cultures were required (see Weinstein 1997 and Weinstein 1998).
In patients treated in ICU for more than one week, a weekly electromyography (EMG) was performed to screen for Critical Illness Polyneuropathy. EMGs were interpreted by the same electrophysiologist who was blinded for randomization. In case of ICU death, a post-mortem examination was performed to confirm the presumed cause of death.
The primary outcome measure was death from all causes during intensive care. Secondary outcome measures were in-hospital mortality, incidence of prolonged intensive care dependency and need for ICU re-admission, need for vital organ system support comprising mechanical ventilatory support, renal replacement therapy (continuous or intermittent hemofiltration or dialysis), inotropic or vasopressor support, incidence of critical illness polyneuropathy, the degree of inflammation, incidence of blood stream infections and use of antibiotics, transfusion requirements and incidence of hyperbilirubinemia. Furthermore, use of intensive care resources was analysed by cumulative TISS scores. In order to accurately and objectively assess duration of ICU stay, which is often influenced by non-patient related factors such as bed availability on regular wards, patients were defined ‘dischargable from ICU’ when they were no longer in need of vital organ system support and received at least ⅔rd of the caloric need through the normal enteral route or earlier when actually sent to a ward.
Baseline and outcome variables were compared using Student's t-test, Chi-square test and Mann-Whitney-U test, as appropriate. Death odds ratios were calculated using multivariate logistic regression analysis. The effect on time of in-hospital death was assessed by Kaplan-Meier analysis and logrank (Mantel-Cox) significance testing. Patients discharged from the hospital were considered as survivors. Data are presented as percentages, means ±SD or medians (25th-75th percentile) unless indicated otherwise.

[1] = IIS, ICU stay >5 days (N = 451)
[2] = IIS, ICU stay ≤5 days (N = 1097)
[3] = RIS, ICU stay >5 days (N = 451)
[4] = RIS, ICU stay ≤5 days (N = 1097)

## insulin
IIS
  >3 days C-reactive protein level above 150 mg/L (%): (15%)
  >3 days C-reactive protein level above 150 mg/L - total no.: 119
  >3 days central body temperature ≤36° C. or […]38° C. (%): (21%)
  >3 days central body temperature ≤36° C. or […]38° C. - total no.: 164
  >3 days white blood cell count ≤4000/μL or […]12000/μL (%): (16%)
  >3 days white blood cell count ≤4000/μL or […]12000/μL - total no.: 121
  Lowest level of hemoglobin (g/dL) when transfused (median): 8.3 g/dL
  Number of patients requiring red cell transfusion (%): (29%)
  Number of patients requiring red cell transfusion - total no: 219
  Patients needing dialysis or CVVH (%): (4.8%)
  Patients needing dialysis or CVVH - total no: 37
  Patients on inotropic/vasopressor treatment (%): (75%)
  Patients on inotropic/vasopressor treatment - total no.: 574
  Patients requiring >7 days intensive care (%): (20.5%)
  Patients requiring >7 days intensive care - total no: 157
  Patients requiring >7 days ventilatory support (%): (16.9%)
  Patients requiring >7 days ventilatory support - total no.: 125
  Patients requiring >14 days intensive care (%): (11.4%)
  Patients requiring >14 days intensive care - total no: 87
  Patients requiring >14 days ventilatory support (%): (7.7%)
  Patients requiring >14 days ventilatory support - total no.: 57
  Patients requiring >21 days intensive care (%): (6.5%)
  Patients requiring >21 days intensive care - total no: 50
  Patients requiring >21 days ventilatory support (%): (5.0%)
  Patients requiring >21 days ventilatory support - total no.: 37
  Patients treated with antibiotics for >10 days (%): (11.2%)
  Patients treated with antibiotics for >10 days - total no.: 86
  Patients with an ICU stay of >5 days: 27%
  Patients with blood stream infections during intensive care (%): (4.2%)
  Patients with blood stream infections during intensive care - total no: 32
  Patients with critical illness polyneuropathy (% of EMG-screened): (29%)
  Patients with hyperbilirubinemia (peak bilirubin >2 mg/dL) (%): (22%)
  Patients with hyperbilirubinemia (peak bilirubin >2 mg/dL) - total no.: 171
  Peak plasma creatinine >2.5 mg/dL (%): (9.0%)
  Peak plasma creatinine >2.5 mg/dL - total no.: 69
  Peak plasma urea concentration >150 mg/dL (%): (7.7%)
  Peak plasma urea concentration >150 mg/dL - total no.: 59
  Repetitive (>2) positive EMGs (% of EMG screened): (7%)
  Repetitive (>2) positive EMGs - total no: 11
  Patients with critical illness polyneuropathy - total no.: 47
  Number of transfusions per patient (median): 1
IIS vs RIS
  >3 days C-reactive protein level above 150 mg/L, NNT: 17
  >3 days C-reactive protein level above 150 mg/L, RRR (%): 29%
  >3 days abnormal central body temperature, NNT: 20
  >3 days abnormal central body temperature, RRR (%): 19%
  >3 days abnormal white blood cell count, NNT: 20
  >3 days abnormal white blood cell count, RRR (%): 24%
  In-hospital stay, difference between the two study groups: not detectably different
  Patients needing dialysis or CVVH, NNT: 29
  Patients needing dialysis or CVVH, RRR (%): 42%
  Patients on inotropic/vasopressor treatment, RRR (%): =
  Patients requiring >7 days intensive care, NNT: 17
  Patients requiring >7 days intensive care, RRR (%): 22%
  Patients requiring >7 days ventilatory support, NNT: 16
  Patients requiring >7 days ventilatory support, RRR (%): 27%
  Patients requiring >14 days intensive care, NNT: 23
  Patients requiring >14 days intensive care, RRR (%): 27%
  Patients requiring >14 days ventilatory support, NNT: 22
  Patients requiring >14 days ventilatory support, RRR (%): 37%
  Patients requiring >21 days intensive care, NNT: 33
  Patients requiring >21 days intensive care, RRR (%): 32%
  Patients requiring >21 days ventilatory support, NNT: 31
  Patients requiring >21 days ventilatory support, RRR (%): 39%
  Patients treated with antibiotics for >10 days, NNT: 17
  Patients treated with antibiotics for >10 days, RRR (%): 35%
  Patients with blood stream infections, NNT: 28
  Patients with blood stream infections, RRR (%): 46%
  Patients with critical illness polyneuropathy, RRR (%): 44%
  Patients with hyperbilirubinemia, NNT: 20
  Patients with hyperbilirubinemia, RRR (%): 19%
  Peak plasma creatinine >2.5 mg/dL, NNT: 31
  Peak plasma creatinine >2.5 mg/dL, RRR (%): 26%
  Peak plasma urea concentration >150 mg/dL, NNT: 29
  Peak plasma urea concentration >150 mg/dL, RRR (%): 31%
  Repetitive (>2) positive EMGs, NNT: 8
  Repetitive (>2) positive EMGs, RRR (%): 63%
IIS vs RIS, among screened patients
  Patients with critical illness polyneuropathy, NNT: 4
IIS vs RIS, long-stay patients
  Reduction in median cumulative TISS score: 20%
[1]
  Cumulative TISS (median): 431
  Days on ICU (median): 12 days
  Days on mechanical ventilatory support (median): 10 days
[2]
  Cumulative TISS (median): 85
  Days on ICU (median): 2 days
  Days on mechanical ventilatory support (median): 1 days
RIS
  >3 days C-reactive protein level above 150 mg/L (%): (21%)
  >3 days C-reactive protein level above 150 mg/L - total no.: 162
  >3 days central body temperature ≤36° C. or […]38° C. (%): (26%)
  >3 days central body temperature ≤36° C. or […]38° C. - total no.: 206
  >3 days white blood cell count ≤4000/μL or […]12000/μL (%): (21%)
  >3 days white blood cell count ≤4000/μL or […]12000/μL - total no.: 166
  Lowest level of hemoglobin (g/dL) when transfused (median): 8.1 g/dL
  Number of patients requiring red cell transfusion (%): (31%)
  Number of patients requiring red cell transfusion - total no: 243
  Patients needing dialysis or CVVH (%): (8.2%)
  Patients needing dialysis or CVVH - total no: 64
  Patients on inotropic/vasopressor treatment (%): (75%)
  Patients on inotropic/vasopressor treatment - total no.: 586
  Patients requiring >7 days intensive care (%): (26.3%)
  Patients requiring >7 days intensive care - total no: 206
  Patients requiring >7 days ventilatory support (%): (23.2%)
  Patients requiring >7 days ventilatory support - total no.: 175
  Patients requiring >14 days intensive care (%): (15.7%)
  Patients requiring >14 days intensive care - total no: 123
  Patients requiring >14 days ventilatory support (%): (12.3%)
  Patients requiring >14 days ventilatory support - total no.: 93
  Patients requiring >21 days intensive care (%): (9.5%)
  Patients requiring >21 days intensive care - total no: 74
  Patients requiring >21 days ventilatory support (%): (8.2%)
  Patients requiring >21 days ventilatory support - total no.: 62
  Patients treated with antibiotics for >10 days (%): (17.1%)
  Patients treated with antibiotics for >10 days - total no.: 134
  Patients with an ICU stay of >5 days: 31%
  Patients with blood stream infections during intensive care - total no: 61
  Patients with critical illness polyneuropathy (% of EMG-screened): (52%)
  Patients with hyperbilirubinemia (peak bilirubin >2 mg/dL) (%): (27%)
  Patients with hyperbilirubinemia (peak bilirubin >2 mg/dL) - total no.: 209
  Peak plasma creatinine >2.5 mg/dL (%): (12.2%)
  Peak plasma creatinine >2.5 mg/dL - total no.: 96
  Peak plasma urea concentration >150 mg/dL (%): (11.2%)
  Peak plasma urea concentration >150 mg/dL - total no.: 88
  Repetitive (>2) positive EMGs (% of EMG screened): (19%)
  Repetitive (>2) positive EMGs - total no: 39
  Patients with critical illness polyneuropathy - total no.: 110
  Number of transfusions per patient (median): 2
[3]
  Cumulative TISS (median): 536
  Days on ICU (median): 15 days
  Days on mechanical ventilatory support (median): 12 days
[4]
  Cumulative TISS (median): 84
  Days on ICU (median): 2 days
  Days on mechanical ventilatory support (median): 1 days
Both study groups (IIS and RIS)
  TISS score on the last day of study (median, IQR): 30 (26-38)
Similar in both groups (IIS and RIS)
  ICU re-admission rate: 2.1%
